From patent US20150105252A1, “SUBSTITUTED PYRAZOLES AS HERBICIDES” (E I DU PONT DE NEMOURS AND COMPANY, priority 2013, published 2015)

Assays:
[1] = test system: cupgrass, woolly; assay: Test C postemergence; format: in vivo, Eriochloa villosa; conditions: for Cupgrass, Woolly plant response rating: scale 0 to 100
From the text: (§1) Seeds of plant species selected from blackgrass (Alopecurus myosuroides), ryegrass, Italian (Italian ryegrass, Lolium multiflorum), wheat (winter wheat, Triticum aestivum), galium (catchweed bedstraw, Galium aparine), corn (Zea mays), crabgrass, large (large crabgrass, Digitaria sanguinalis), foxtail, giant (giant foxtail, Setaria faberii), johnsongrass (Sorghum halepense), lambsquarters (Chenopodium album), morningglory (Ipomoea coccinea), nutsedge, yellow (yellow nutsedge, Cyperus esculentus), pigweed (redroot pigweed, Amaranthus retroflexus), ragweed (common ragweed, Ambrosia elation), soybean (Glycine max), barnyardgrass (Echinochloa crus-galli), oilseed rape (Brassica napus), waterhemp (common waterhemp, Amaranthus rudis), oat, wild (wild oat, Avena fatua), kochia (Kochia scoparia), Surinam grass (Brachiaria decumbens), foxtail, green (green foxtail, Setaria viridis), goosegrass (Eleusine indica), bromegrass, downy (downy bromegrass, Bromus tectorum), nightshade (eastern black nightshade, Solanum ptycanthum), cocklebur (common cocklebur, Xanthium strumarium), cupgrass, woolly (woolly cupgrass, Eriochloa villosa), bermudagrass (Cynodon dactylon), sunflower, (common oilseed sunflower, Helianthus annuus), Russian thistle (Salsola kali), and velvetleaf (Abutilon theophrasti) were planted into a blend of loam soil and sand and treated preemergence with test chemicals formulated in a non-phytotoxic solvent mixture which included a surfactant.
(§2) At the same time, plants selected from these crop and weed species and also chickweed (common chickweed, Stellaria media), canarygrass (littleseed canarygrass, Phalaris minor), and deadnettle (henbit deadnettle, Lamium amplexicaule), were planted in pots containing Redi-Earth® planting medium (Scotts Company, 14111 Scottslawn Road, Marysville, Ohio 43041) comprising spaghnum peat moss, vermiculite, wetting agent and starter nutrients and treated with postemergence applications of test chemicals formulated in the same manner. Plants ranged in height from 2 to 18 cm (1- to 4-leaf stage) for postemergence treatments. Treated plants and controls were maintained in a greenhouse for 13 to 15 days, after which time all species were compared to controls and visually evaluated. Plant response ratings, summarized in Table C, are based on a scale of 0 to 100 where 0 is no effect and 100 is complete control. A dash (-) response means no test result.

[2] = test system: windgrass; assay: Test C postemergence; format: in vivo, Apera spica-venti; conditions: 125 g ai/ha, scale 0 to 100, 0 no effect, 100 complete control
[3] = test system: goosegrass; assay: Test C preemergence; format: in vivo, Eleusine indica; conditions: for Plant response rating (scale of 0 to 100), Goosegrass: Preemergence, 250 g ai/ha; for Goosegrass plant response rating / Plant response rating, Goosegrass: preemergence; for Plant response rating, Goosegrass: 62 g ai/ha, scale 0 to 100, 0 = no effect, 100 = complete control
From the text: as §1, §2

[4] = test system: cocklebur; assay: Test C preemergence; format: in vivo, Xanthium strumarium; conditions: for Plant response rating (scale of 0 to 100), Cocklebur: Preemergence, 250 g ai/ha; for Cocklebur plant response rating / Plant response rating, Cocklebur: preemergence; for Plant response rating, Cocklebur: 62 g ai/ha, scale 0 to 100, 0 = no effect, 100 = complete control
From the text: as §1, §2

[5] = test system: lambsquarters; assay: Test F preemergence; format: in vivo, Chenopodium album
From the text: (§3) Seeds of plant species selected from corn (Zea mays), soybean (Glycine max), velvetleaf (Abutilon theophrasti), lambsquarters (Chenopodium album), wild poinsettia (Euphorbia heterophylla), pigweed, palmer (palmer pigweed, Amaranthus palmeri), common waterhemp (Amaranthus rudis), surinam grass (Brachiaria decumbens), large crabgrass (Digitaria sanguinalis), crabgrass, Brazil (Brazilian crabgrass, Digitaria horizontalis), fall panicum (Panicum dichotomiflorum), giant foxtail (Setaria faberii), green foxtail (Setaria viridis), goosegrass (Eleusine indica), johnsongrass (Sorghum halepense), common ragweed (Ambrosia elation), barnyardgrass (Echinochloa crus-galli), southern sandbur (Cenchrus echinatus), arrowleaf sida (Sida rhombifolia), Italian ryegrass (Lolium multiflorum), dayflower, VA (Virginia (VA) dayflower, Commelina virginica), field bindweed (Convolvulus arvensis), cocklebur (common cocklebur, Xanthium strumarium), morningglory (Ipomoea coccinea), nightshade (eastern black nightshade, Solanum ptycanthum), kochia (Kochia scoparia), yellow nutsedge (Cyperus esculentus), and hairy beggarticks (Bidens pilosa), were planted into a silt loam soil and treated preemergence with test chemicals formulated in a non-phytotoxic solvent mixture which included a surfactant.
(§4) At the same time, plants from these crop and weed species and also horseweed (Canada horseweed, Conyza canadensis), smartweed (ladysthumb smartweed, Polygonum persicaria), waterhemp_RES1, (ALS & Triazine resistant common waterhemp, Amaranthus rudis), and waterhemp_RES2, (ALS & HPPD resistant common waterhemp, Amaranthus rudis) were treated with postemergence applications of test chemicals formulated in the same manner. Plants ranged in height from 2 to 18 cm for postemergence treatments (1- to 4-leaf stage). Treated plants and controls were maintained in a greenhouse for 14 to 21 days, after which time all species were compared to controls and visually evaluated. Plant response ratings, summarized in Table F, are based on a scale of 0 to 100 where 0 is no effect and 100 is complete control. A dash (-) response means no test result.

[6] = test system: dayflower, VA; assay: Test F preemergence; format: in vivo, Commelina virginica
From the text: as §3, §4

[7] = test system: pigweed, palmer; assay: Test F preemergence; format: in vivo, Amaranthus palmeri
From the text: as §3, §4

[8] = postemergence, 250 g ai/ha, scale 0 to 100 (0 no effect, 100 complete control)
[9] = postemergence, 62 g ai/ha, scale 0 to 100, 0 no effect, 100 complete control
[10] = postemergence, 125 g ai/ha, scale 0 to 100, 0 no effect, 100 complete control
[11] = 31 g ai/ha, scale 0 to 100 (0 no effect, 100 complete control), 13 to 15 days
[12] = 125 g ai/ha, scale 0 to 100, 0 is no effect, 100 is complete control
[13] = Preemergence, 31 g ai/ha, scale 0 to 100
[14] = Preemergence, 62 g ai/ha, scale 0 to 100
[15] = Preemergence, 125 g ai/ha, scale 0 to 100
[16] = preemergence, 8 g ai/ha, scale 0 to 100, 100 is complete control
[17] = preemergence, 16 g ai/ha, scale 0 to 100, 100 is complete control

Compound | Cupgrass, Woolly plant response rating ([1]; Postemergence, 31 g ai/ha) | Plant response rating, Cupgrass, Woolly [1, 8] | Plant response rating, Cupgrass, Woolly [1, 9] | Plant response rating, Cupgrass, Woolly [1, 10] | Plant response rating, Windgrass [2] | Plant response rating (scale of 0 to 100), Goosegrass [3] | Goosegrass plant response rating [3, 11] | Plant response rating, Goosegrass ([3]; 13 to 15 days) | Goosegrass plant response rating [3, 12] | Plant response rating (scale of 0 to 100), Cocklebur [4] | Cocklebur plant response rating [4, 11] | Plant response rating, Cocklebur ([4]; 13 to 15 days) | Cocklebur plant response rating [4, 12] | Cupgrass, Woolly plant response rating ([1]; postemergence, 62 g ai/ha) | further results
CCc1cc(C(=O)NCC(F)(F)F)nn1Cc1cccc(OC(F)(F)F)c1 [Compound 20] | 5 | 15 | 10 | 15 | 40 | – | – | – | – | – | – | – | – | – | –
CCCNC(=O)c1cc(CC)n(Cc2cccc(OC(F)(F)F)c2)n1 [Compound 27] | 0 | 20 | 5 | 10 | 40 | – | – | – | – | – | – | – | – | – | –
CCc1cc(C(=O)NOC(C)C)nn1Cc1cccc(OC(F)(F)F)c1 [Compound 70] | 0 | 20 | 0 | 15 | 50 | 98 | 60 | 80 | 95 | 100 | 0 | 0 | 45 | – | –
CCONC(=O)c1cc(CC)n(Cc2cccc(OC(F)(F)F)c2)n1 [Compound 72] | 5 | 15 | – | 10 | 25 | 98 | 75 | 98 | 98 | 100 | 0 | 0 | 10 | 10 | –
Cc1cc(C(=O)NCC(F)(F)F)nn1Cc1ccnc(C(F)(F)F)c1 [Compound 74] | 5 | 20 | – | 15 | 0 | 100 | 75 | 85 | 100 | 100 | 100 | 100 | 100 | 10 | –
CCc1cc(-c2ccc(C(F)(F)F)cc2)nn1Cc1ccnc(C(F)(F)F)c1 [Compound 110] | – | – | – | – | – | – | – | – | – | – | – | – | – | – | Plant response rating, Lambsquarters [5, 13]: 65; Plant response rating, Lambsquarters [5, 14]: 50; Plant response rating, Lambsquarters [5, 15]: 100; Plant response rating, Lambsquarters [5, 16]: 0; Plant response rating, Lambsquarters [5, 17]: 0; Plant response rating, Dayflower, VA [6, 13]: 5; Plant response rating, Dayflower, VA [6, 14]: 10; Plant response rating, Dayflower, VA [6, 15]: 65; Plant response rating, Dayflower, VA [6, 16]: 0; Plant response rating, Dayflower, VA [6, 17]: 0; Plant response rating, Pigweed, Palmer [7, 13]: 95; Plant response rating, Pigweed, Palmer [7, 14]: 100; Plant response rating, Pigweed, Palmer [7, 15]: 100; Plant response rating, Pigweed, Palmer [7, 16]: 70; Plant response rating, Pigweed, Palmer [7, 17]: 90
